Source: the supplement of paper PMC4862054

Legend:
Conditions in all cases: incubation time: 72 h
MCF-10A [1] = test: normalised response (% of control), CellTiter-Glo; higher = more viable cells (100 = DMSO, 0 = benzethonium chloride kill control)
Method in brief: (§1)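 Two readouts were taken after 72 h: CellTox Green fluorescence (485/520 nm) first, then CellTiter-Glo luminescence after 10 min at room temperature. Breast cancer cell lines had been seeded as 20 µl suspension into 384-well plates holding compound at 5 concentrations in 10-fold steps across a compound-specific 10,000-fold range. Each value is a normalised signal at a single concentration, with plates scaled to 0.1 % DMSO (100) and a positive kill control (0).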

DU-4475 [2] = test: as above
Method in brief: as §1

MDA-MB-231 [3] = test: as above
Method in brief: as §1

MDA-MB-468 [4] = test: as above
Method in brief: as §1

HDQ-P1 [5] = test: as above
Method in brief: as §1

MDA-MB-453 [6] = test: as above
Method in brief: as §1

BT-549 [7] = test: as above
Method in brief: as §1

CAL-148 [8] = test: as above
Method in brief: as §1

CAL-85-1 [9] = test: as above
Method in brief: as §1

BT-474 [10] = test: as above
Method in brief: as §1

CAL-51 [11] = test: as above
Method in brief: as §1

HCC1143 [12] = test: as above
Method in brief: as §1

SK-BR-3 = test: as above
Method in brief: as §1

HCC1937 [13] = test: as above
Method in brief: as §1

HCC1599 [14] = test: as above
Method in brief: as §1

MFM-223 [15] = test: as above
Method in brief: as §1

Hs578T [16] = test: as above
Method in brief: as §1

CAL-120 [17] = test: as above
Method in brief: as §1

MDA-MB-436 [18] = test: as above
Method in brief: as §1

MCF-10A [19] = test: normalised response (% of control), CellTox Green; higher = less cell death (100 = DMSO, 0 = benzethonium chloride kill control)
Method in brief: as §1

DU-4475 [20] = test: as above
Method in brief: as §1

MDA-MB-231 [21] = test: as above
Method in brief: as §1

MDA-MB-468 [22] = test: as above
Method in brief: as §1

MDA-MB-453 [23] = test: as above
Method in brief: as §1

BT-549 [24] = test: as above
Method in brief: as §1

CAL-148 [25] = test: as above
Method in brief: as §1

CAL-85-1 [26] = test: as above
Method in brief: as §1

BT-474 [27] = test: as above
Method in brief: as §1

CAL-51 [28] = test: as above
Method in brief: as §1

HCC1599 [29] = test: as above
Method in brief: as §1

MFM-223 [30] = test: as above
Method in brief: as §1

Hs578T [31] = test: as above
Method in brief: as §1

CAL-120 [32] = test: as above
Method in brief: as §1

MDA-MB-436 [33] = test: as above
Method in brief: as §1

HDQ-P1 [34] = test: as above
Method in brief: as §1

HCC1143 [35] = test: as above
Method in brief: as §1

HCC1937 [36] = test: as above
Method in brief: as §1

| SMILES | normalised response (MCF-10A [1]) [%] | normalised response (DU-4475 [2]) [%] | normalised response (MDA-MB-231 [3]) [%] | normalised response (MDA-MB-468 [4]) [%] | normalised response (HDQ-P1 [5]) [%] | normalised response (MDA-MB-453 [6]) [%] | normalised response (BT-549 [7]) [%] | normalised response (CAL-148 [8]) [%] | normalised response (CAL-85-1 [9]) [%] | normalised response (BT-474 [10]) [%] | normalised response (CAL-51 [11]) [%] | normalised response (HCC1143 [12]) [%] | normalised response (SK-BR-3) [%] | normalised response (HCC1937 [13]) [%] | normalised response (HCC1599 [14]) [%] | normalised response (MFM-223 [15]) [%] | normalised response (Hs578T [16]) [%] | normalised response (CAL-120 [17]) [%] | normalised response (MDA-MB-436 [18]) [%] | normalised response (MCF-10A [19]) [%] | normalised response (DU-4475 [20]) [%] | normalised response (MDA-MB-231 [21]) [%] | normalised response (MDA-MB-468 [22]) [%] | normalised response (MDA-MB-453 [23]) [%] | normalised response (BT-549 [24]) [%] | normalised response (CAL-148 [25]) [%] | normalised response (CAL-85-1 [26]) [%] | normalised response (BT-474 [27]) [%] | normalised response (CAL-51 [28]) [%] | normalised response (HCC1599 [29]) [%] | normalised response (MFM-223 [30]) [%] | normalised response (Hs578T [31]) [%] | normalised response (CAL-120 [32]) [%] | normalised response (MDA-MB-436 [33]) [%] | normalised response (HDQ-P1 [34]) [%] | normalised response (HCC1143 [35]) [%] | normalised response (HCC1937 [36]) [%] |
| --- | --- | --- | --- | --- | --- | --- | --- | --- | --- | --- | --- | --- | --- | --- | --- | --- | --- | --- | --- | --- | --- | --- | --- | --- | --- | --- | --- | --- | --- | --- | --- | --- | --- | --- | --- | --- | --- |
| CC(C)(C)Cn1c(N)nc2ccc(-c3[nH]c(C(C)(C)C)nc3-c3ccc(F)cc3)nc21 (1000 nM) | 89.7 | 94.8 | 100 | 93.4 | 94.6 | 92.8 | 93.7 | 93.1 | 104 | 101 | 103 | 98 | 97.7 | 93.6 | 111 | 97.9 | 97.7 | 96.6 | 102 | 77.7 | 105 | 110 | 113 | 101 | 111 | 99.9 | 90.7 | 101 | 94 | 84.3 | 99.5 | 80.6 | 81.1 | 78.8 | – | – | – |
| Cn1cc(C[C@@H](N)C(=O)O)c2ccccc21 [1-methyl-D-tryptophan] (500 nM) | 104 | 94.4 | 96.6 | 101 | 107 | 105 | 105 | 89.7 | 100 | 97.6 | 81.3 | 94.8 | 92.7 | 99.3 | 115 | 92.7 | 115 | 105 | 101 | 113 | 101 | 95.6 | 143 | 103 | – | 91.4 | 98.8 | 99.3 | 95.5 | 85.2 | 84.3 | 66.7 | 99.3 | 88.9 | 107 | 94.1 | – |
| CC[C@H](CC#N)OC(=O)N[C@@H](C)c1cccc(NC(=O)Nc2ccc(-c3cnco3)c(OC)c2)c1 [AVN944] (1000 nM) | 58 | 29.2 | 53.5 | 37.5 | 46.1 | 84.4 | 36.3 | 34.3 | 40.8 | 58.7 | 24.1 | 42.3 | 51.3 | 52.7 | 48.1 | 71.3 | 44.4 | 59.9 | 42.7 | 112 | 88.2 | 81.8 | 131 | 90.3 | 127 | -21.7 | 97 | 86.3 | 63.5 | 85 | 44.7 | 32 | 99.9 | 74 | 98.8 | 56.6 | 76.8 |
| CCc1cnn2c(NCc3ccc[n+]([O-])c3)cc(N3CCCC[C@H]3CCO)nc12 [Dinaciclib] (100 nM) | 28.7 | 18.6 | 5.94 | 9.07 | 22.3 | 15.5 | 12.7 | 52.9 | 8.18 | 20.7 | 10.2 | 18.8 | 4.18 | 27.6 | 10.5 | 14.8 | 12.9 | 36.6 | 15.8 | 65 | 96.3 | -7.86 | -14.9 | 100 | 53.8 | 50.9 | 21.7 | 71 | 50.7 | 71.3 | 30.3 | 38 | 87.7 | 105 | 63.2 | 88.7 | 87.2 |
| COc1cc(Nc2ncc(F)c(Nc3ccc4c(n3)N(COP(=O)(O)O)C(=O)C(C)(C)O4)n2)cc(OC)c1OC [Fostamatinib] (250 nM) | 84 | 94.8 | 85 | 90.5 | 103 | 93.7 | 93.7 | 91.4 | 96.1 | 88.2 | 105 | 95 | 98.1 | 94.9 | 110 | 63.1 | 91.3 | 86.9 | 105 | 102 | 100 | 53.7 | 57 | 107 | 82.7 | 93.1 | 106 | 97.8 | 92.2 | 92.7 | 101 | 97.7 | 101 | 86.6 | 109 | 76.3 | 125 |
| CC(C)NC[C@@H](C(=O)N1CCN(c2ncnc3c2[C@H](C)C[C@H]3O)CC1)c1ccc(Cl)cc1 [GDC-0068] (1000 nM) | 82.8 | 91.9 | 92.4 | 60.9 | 65.5 | 53.6 | 70.2 | 19 | 85.8 | 89.5 | 60.5 | 89.3 | 67.2 | 79 | 103 | 31.7 | 85.4 | 81.4 | 89.1 | 74.4 | 102 | 106 | 95.5 | 97.8 | 90.5 | 34.3 | 113 | 74.3 | 89.6 | 93.2 | 86.1 | 101 | 99.3 | 113 | 105 | 121 | 115 |
| CCCc1cc(C)[nH]c(=O)c1CNC(=O)c1cc(-c2ccnc(N3CCN(C)CC3)c2)cc2c1cnn2C(C)C [GSK343] (1000 nM) | 96.4 | 89.5 | 97.3 | 87 | 103 | 80.4 | 92.9 | 77.9 | 101 | 103 | 73.8 | 95.3 | 83.6 | 103 | 95.9 | 90.7 | 101 | 95 | 99.1 | 107 | 94.6 | 106 | 183 | 97.6 | 107 | 98.2 | 98 | 97.9 | 82.5 | 91.5 | – | 73.9 | 96.1 | 79.6 | 72.7 | 98.9 | 121 |
| COc1cc2c(cc1-c1c(C)noc1C)ncc1[nH]c(=O)n([C@H](C)c3ccccn3)c12 [I-BET151] (1000 nM) | 74 | 82.9 | 85.7 | 86.3 | 82.9 | 68.4 | 57.5 | 101 | 57.4 | 77.8 | 87.4 | 87.3 | 82 | 79.5 | 97.3 | 72 | 52.6 | 71.2 | 94.7 | 109 | 94.7 | 123 | 117 | 106 | 93.6 | – | 83.8 | 97.2 | 89.2 | 97.9 | 101 | 79.2 | 91.8 | 99.7 | – | 105 | 42.4 |
| CN1CCc2c(c3ccccc3n2Cc2ccc(C(=O)NO)cc2)C1 [Tubastatin A] (1000 nM) | 112 | 96.5 | 91.7 | 90.8 | 87.9 | 92.4 | 101 | 103 | 94.7 | 91.7 | 53.5 | 94.3 | 100 | 92.9 | 104 | 96.9 | 101 | 93.3 | 97.5 | 110 | 105 | 98.7 | 131 | 105 | 99.6 | 104 | 111 | 99.2 | 91.3 | 93.7 | 101 | 81.9 | 102 | 106 | 94.3 | – | 98 |
